From publication PMC8142146 (Bioorganic chemistry, 2020)
Read-outs that look alike come from different tables or passages of the source.

Assays:
PARP1 [1] = target: T1, PARP1 (Homo sapiens, UniProt P09874); assay: in vitro PARP1 enzyme assay; details: for fold improvement in PARP1 activity compared to lead 4: vs unsubstituted lead 4 (IC50 = 5.8 μM); for inhibition at 5 µM: read-out: PARP1 inhibition at 5 μM
PARP1 [2] = target: T1, PARP1; details: read-out: PARP1 IC50, literature value; cited from earlier work
PARP1 [3] = target: T1, PARP1; assay: BPS PARP1 Chemiluminescent Activity Assay Kit; assay type: biochemical

T1 sequence (P09874 whole entry): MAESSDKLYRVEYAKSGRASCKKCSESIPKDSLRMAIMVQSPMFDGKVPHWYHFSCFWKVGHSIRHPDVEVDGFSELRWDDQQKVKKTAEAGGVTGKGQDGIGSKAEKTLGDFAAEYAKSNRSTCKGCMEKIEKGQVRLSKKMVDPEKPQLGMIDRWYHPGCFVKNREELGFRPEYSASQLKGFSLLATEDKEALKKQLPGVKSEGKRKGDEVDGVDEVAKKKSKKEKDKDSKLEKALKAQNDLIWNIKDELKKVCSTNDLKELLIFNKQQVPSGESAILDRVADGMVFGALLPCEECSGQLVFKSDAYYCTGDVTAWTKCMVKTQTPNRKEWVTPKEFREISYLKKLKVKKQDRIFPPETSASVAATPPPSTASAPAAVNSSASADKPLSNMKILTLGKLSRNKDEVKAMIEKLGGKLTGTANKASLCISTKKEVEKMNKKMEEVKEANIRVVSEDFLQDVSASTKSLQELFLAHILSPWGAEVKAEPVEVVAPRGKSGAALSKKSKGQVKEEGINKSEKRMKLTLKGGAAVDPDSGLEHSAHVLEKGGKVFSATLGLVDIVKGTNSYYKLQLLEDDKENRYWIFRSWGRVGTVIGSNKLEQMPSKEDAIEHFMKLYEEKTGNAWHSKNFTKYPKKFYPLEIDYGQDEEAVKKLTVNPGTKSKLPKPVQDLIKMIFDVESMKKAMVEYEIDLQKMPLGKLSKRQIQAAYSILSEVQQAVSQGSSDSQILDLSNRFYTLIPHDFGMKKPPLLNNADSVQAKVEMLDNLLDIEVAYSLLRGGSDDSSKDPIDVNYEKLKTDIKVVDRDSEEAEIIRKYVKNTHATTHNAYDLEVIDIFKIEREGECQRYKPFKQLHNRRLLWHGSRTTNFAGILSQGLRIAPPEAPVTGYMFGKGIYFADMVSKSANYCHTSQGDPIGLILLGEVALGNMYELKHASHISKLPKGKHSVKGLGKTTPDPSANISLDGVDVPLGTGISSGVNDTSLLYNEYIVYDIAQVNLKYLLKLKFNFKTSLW

Structure (SMILES) | inhibition at 5 µM (PARP1 [1]) [%] | also measured
CS(=O)(=O)OC[C@@H]1COc2cccc(C(N)=O)c2O1 [Compound 21b, (S)-(8-Carbamoyl-2,3-dihydrobenzo[b][1,4]dioxin-2-yl)methyl methanesulfonate] | – | fold improved PARP1 activity over 25a (PARP1 [1]; vs hydroxymethyl precursor 25a): ~ 10 fold; fold improvement in PARP1 activity compared to lead 4 (PARP1 [1]): ~ 8 fold
CN1CCN(C[C@H]2COc3c(cccc3C(N)=O)O2)CC1 [Compound 22a, (S)-2-((4-Methylpiperazin-1-yl)methyl)-2,3-dihydrobenzo[b][1,4]dioxine-5-carboxamide] | < 20 | –
CN1CCN(C[C@@H]2COc3cccc(C(N)=O)c3O2)CC1 [Compound 22b, (R)-3-((4-Methylpiperazin-1-yl)methyl)-2,3-dihydrobenzo[b][1,4]dioxine-5-carboxamide] | < 20 | –
NC(=O)c1cccc2c1OC[C@H](CN1CCN(c3ncccn3)CC1)O2 [Compound 23a, (S)-2-((4-(Pyrimidin-2-yl)piperazin-1-yl)methyl)-2,3-dihydrobenzo[b][1,4]dioxine-5-carboxamide] | < 20 | –
NC(=O)c1cccc2c1O[C@H](CN1CCN(c3ncccn3)CC1)CO2 [Compound 23b, (R)-3-((4-(Pyrimidin-2-yl)piperazin-1-yl)methyl)-2,3-dihydrobenzo[b][1,4]dioxine-5-carboxamide] | < 20 | –
CS(=O)(=O)OC[C@H]1COc2cccc(C(N)=O)c2O1 [Compound 26b, (R)-(8-Carbamoyl-2,3-dihydrobenzo[b][1,4]dioxin-2-yl)methyl methanesulfonate] | – | fold improvement in PARP1 activity compared to lead 4 (PARP1 [1]): ~ 5 fold
CN1CCN(C[C@@H]2COc3c(cccc3C(N)=O)O2)CC1 [Compound 27a, (R)-2-((4-Methylpiperazin-1-yl)methyl)-2,3-dihydrobenzo[b][1,4]dioxine-5-carboxamide] | < 20 | –
CN1CCN(C[C@H]2COc3cccc(C(N)=O)c3O2)CC1 [Compound 27b, (S)-3-((4-Methylpiperazin-1-yl)methyl)-2,3-dihydrobenzo[b][1,4]dioxine-5-carboxamide] | < 20 | –
NC(=O)c1cccc2c1OC[C@@H](CN1CCN(c3ncccn3)CC1)O2 [Compound 28a, (R)-2-((4-(Pyrimidin-2-yl)piperazin-1-yl)methyl)-2,3-dihydrobenzo[b][1,4]dioxine-5-carboxamide] | < 20 | –
NC(=O)c1cccc2c1O[C@@H](CN1CCN(c3ncccn3)CC1)CO2 [Compound 28b, (S)-3-((4-(Pyrimidin-2-yl)piperazin-1-yl)methyl)-2,3-dihydrobenzo[b][1,4]dioxine-5-carboxamide] | < 20 | –
NC(=O)c1cccc2c1OCO2 [Compound 31, Benzo[d][1,3]dioxole-4-carboxamide] | – | IC50 (PARP1 [2]): 5.3 µM
NC(=O)c1cccc2c1OCCCO2 [Compound 32, 3,4-Dihydro-2H-benzo[b][1,4]dioxepine-6-carboxamide] | – | inhibition at 2.5 µM (PARP1 [1]; read-out: PARP1 inhibition at 2.5 μM): 15%
NC(=O)c1cccc2c1OCCN2 [Compound 44, 3,4-Dihydro-2H-benzo[b][1,4]oxazine-8-carboxamide] | – | fold less potent than 4 (PARP1) (PARP1 [1]; vs 4): ~ 2 fold
NC(=O)c1cccc2c1OCC(=O)N2 [Compound 45, 3-Oxo-3,4-dihydro-2H-benzo[b][1,4]oxazine-8-carboxamide] | – | fold enhanced PARP1 activity in comparison to 44 (PARP1 [1]; vs 44): 15 fold
NC(=O)c1cccc2c1O/C(=C\c1ccc(C(=O)O)cc1)C(=O)N2 [Compound 50, (Z)-2-(4-Carboxybenzylidene)-3-oxo-3,4-dihydro-2H-benzo[b][1,4]oxazine-8-carboxamide] | – | IC50 (PARP1 [3]): 0.42 ± 0.046 µM
